# Laboratory results published in US9684238B2, “Fluorene-type compound, photopolymerization initiator comprising said fluorene-type compound, and photosensitive composition containing said photopolymerization initiator” (TOKYO OHKA KOGYO CO., LTD., priority 2012, dated 2017).
# Legend:
# [1] = Evaluation 1: 20-μm pattern line width of transparent photosensitive composition; conditions: for 20-μm pattern line width: transparent composition, initiator 0.4 mmol; for sensitivity to the active energy ray (in words): photopolymerization initiator containing the compound
# Experimental: After that, the mixture was filtered with a membrane filter having an aperture of 5 μm to provide a photosensitive composition.
# It should be noted that the fluorene-based compound as a photopolymerization initiator was used in such an amount that its molar quantity was kept constant in the respective examples and comparative examples.
# The glass substrate after the application was dried with a fan dryer at 90° C. for 10 minutes. Thus, a coating film (photosensitive layer) was formed. Next, the film was exposed to light having an exposure energy quantity of 5 mJ/cm^2, 10 mJ/cm^2, 20 mJ/cm^2, 40 mJ/cm^2, 60 mJ/cm^2, or 80 mJ/cm^2 by using a high-pressure mercury lamp (manufactured by Karl Suss, trade name: “MASK ALIGNER”) through a negative mask (mask width: 20 μm). Next, the resultant was immersed in a 0.1 wt % aqueous solution of tetramethylammonium hydroxide (TMAH) and then rinsed with pure water. The remaining cured film was subjected to the following evaluation.
# (§1) A larger value for the line width means higher sensitivity.
# [2] = Absorption coefficient (absorbance of 0.001% solution in tetrahydrofuran); assay type: physicochemical; conditions: for Λ max (absorption maximum wavelength): 0.001% (wt/vol) in tetrahydrofuran, from 280 nm to 400 nm; for Absorption coefficient at 365 nm / Absorption coefficient at Λ max: 0.001% (wt/vol) solution in tetrahydrofuran
# Experimental: A 0.001% (wt/vol) solution of each of the compounds 1, 2, 4, 6, 8, 9, 11, 12, 13, 15, 16, D-1, D-3, D-4, D-7, D-8, D-9, D-12, D-14, D-15, D-20, C-1, and C-2 in tetrahydrofuran was prepared, and its absorbance was measured with a spectrophotometer (manufactured by Hitachi High-Technologies Corporation, trade name: “U-3900H”). An absorption maximum wavelength (Amax) at a wavelength of from 280 nm to 400 nm was read from an absorption spectrum obtained with the spectrophotometer.
# [3] = Average transmittance of composition; assay type: physicochemical; conditions: photosensitive composition, quartz cell, optical path length 1 cm
# Experimental: The average transmittance (%) of each of the photosensitive resin compositions obtained in Examples 1 to 9, Examples 2-1 to 2-10, and Comparative Examples 1 and 2 in the range of from 400 nm to 700 nm was measured with a spectrophotometer (manufactured by Hitachi High-Technologies Corporation, trade name: “U-3900H”, quartz cell, optical path length; 1 cm).
# [4] = Transmittance of transparent cured film; assay type: physicochemical; conditions: for Average transmittance (700 nm to 400 nm) Transparent cured film / Transmittance (400 nm) Transparent cured film: cured at exposure energy quantity 80 mJ/cm^2; for transparency of photosensitive composition and formed product (in words): photopolymerization initiator containing the compound
# Experimental: Transparent cured films were formed by using the photosensitive compositions obtained in Examples 1 to 9, Examples 2-1 to 2-10, and Comparative Examples 1 and 2 in the same manner as in the evaluation 1 except that the exposure energy quantity was set to 80 mJ/cm^2. The transmittance (%) of each of the resultant transparent cured films at 400 nm and the average transmittance (%) thereof in the range of from 400 to 700 nm were measured with a spectrophotometer (manufactured by Hitachi High-Technologies Corporation, trade name: “U-3900H”, quartz cell, optical path length; 1 cm). A higher transmittance at 400 nm means less coloring with a yellow color. In addition, a higher transmittance of a coating film means a higher transmitting property of a pattern to be formed.
# [5] = Decomposition point by thermal analysis (TG-DTA); assay type: physicochemical; conditions: 5.0 mg
# Experimental: The compounds 1, 2, 4, 6, 8, 9, 11, 12, 13, 15, 16, D-1, D-3, D-4, D-7, D-8, D-9, D-12, D-14, D-15, D-20, C-1, and C-2 were each subjected to measurement with a thermal analysis apparatus (TG-DTA) (manufactured by Rigaku Corporation, trade name: “Thermo Plus EVO TG 8120”) by using 5.0 mg thereof.
# [6] = Solubility in PGME, PGMEA and ethyl lactate; assay type: physicochemical; conditions: room temperature
# Experimental: An evaluation for solubility was performed in accordance with the following evaluation criteria based on the dissolution amount.
# A: 10 Parts by weight or more of the photopolymerization initiator is dissolved.
# B: An amount in the range of from 5 parts by weight or more to less than 10 parts by weight of the photopolymerization initiator is dissolved.
# C: An amount in the range of from 2 parts by weight or more to less than 5 parts by weight of the photopolymerization initiator is dissolved.
# D: Less than 2 parts by weight of the photopolymerization initiator is dissolved.
# [7] = Evaluation 3: 20-μm pattern line width of black photosensitive composition; conditions: black composition (carbon black, cardo resin), initiator 0.4 mmol
# Description: The mixture was filtered with a membrane filter having an aperture of 5 μm to provide a photosensitive composition.
# Photosensitive compositions were each obtained in the same manner as in Example 10 except that the used fluorene-based compound and its usage were changed as shown in Table 5.
# Each of the photosensitive compositions obtained in Examples 10 to 15, Examples 2-11 to 2-20, and Comparative Example 3 was applied onto a glass substrate with a spin coater (manufactured by Kyowariken Co., Ltd., trade name: “K-359SD1”) so that its thickness after drying became 1.0 μm. The glass substrate after the application was dried with a fan dryer at 90° C. for 10 minutes. Thus, a coating film (photosensitive layer) was formed. Next, the film was exposed to light having an exposure energy quantity of 10 mJ/cm^2, 20 mJ/cm^2, 40 mJ/cm^2, 60 mJ/cm^2, or 80 mJ/cm^2 by using a high-pressure mercury lamp (manufactured by Karl Suss, trade name: “MASK ALIGNER”) through a negative mask (mask width: 20 μm). Next, the resultant was immersed in a 0.1 wt % aqueous solution of tetra methyl ammonium hydroxide (TMAH) and then rinsed with pure water. The remaining cured film was subjected to the following evaluation. In addition, FIGS. 2, 3, and 6 show microscope photographs of black cured films obtained by using the photosensitive compositions of Examples 10 and 11, and Comparative Example 3, and FIGS. 7 to 11 show microscope photographs of black cured films obtained by using the photosensitive compositions of Examples 2-11, 2-13, 2-14, 2-17, and 2-18.
# as §1
# [8] = exposure energy quantity 10 mJ/cm^2
# [9] = exposure energy quantity 20 mJ/cm^2
# [10] = exposure energy quantity 40 mJ/cm^2
# [11] = exposure energy quantity 60 mJ/cm^2
# [12] = exposure energy quantity 80 mJ/cm^2
# [13] = exposure energy quantity 5 mJ/cm^2
Structure (SMILES),Λ max (absorption maximum wavelength) [2] [nm],Absorption coefficient at 365 nm [2] [mL/mg/cm],Absorption coefficient at Λ max [2] [mL/mg/cm],Average transmittance (700 nm to 400 nm) Solution [3] [%],Average transmittance (700 nm to 400 nm) Transparent cured film [4] [%],Transmittance (400 nm) Transparent cured film [4] [%],Decomposition point [5] [°C],transparency of photosensitive composition and formed product (in words) [4],"20-μm pattern line width [1, 8]","20-μm pattern line width [1, 9]","20-μm pattern line width [1, 10]","20-μm pattern line width [1, 11]","20-μm pattern line width [1, 12]",20-μm pattern line width ([7]; 10 mJ/cm^2),20-μm pattern line width ([7]; 20 mJ/cm^2),20-μm pattern line width ([7]; 40 mJ/cm^2),20-μm pattern line width ([7]; 60 mJ/cm^2),20-μm pattern line width ([7]; 80 mJ/cm^2),sensitivity to the active energy ray (in words) [1],"20-μm pattern line width [1, 13]",other results
"CCn1c2ccc(/C(=N\OC(C)=O)c3ccc(OC(C)COC)cc3C)cc2c2cc([N+](=O)[O-])ccc21 (stereo not shown) [Compound C-2, reference compound]",369.0,26.8,27.2,75.9,95.1,72.7,264.0,,21.3,22.3,23.6,23.5,24.0,,,,,,,,Solubility Ethyl lactate ([6]; in 100 parts by weight of ethyl lactate): C (An amount in the range of from 2 parts by weight or more to less than 5 parts by weight of the photopolymerization initiator is dissolved.); Solubility PGMEA ([6]; in 100 parts by weight of propylene glycol monomethyl ether acetate): B (An amount in the range of from 5 parts by weight or more to less than 10 parts by weight of the photopolymerization initiator is dissolved.); Solubility PGME ([6]; in 100 parts by weight of propylene glycol monomethyl ether): C (An amount in the range of from 2 parts by weight or more to less than 5 parts by weight of the photopolymerization initiator is dissolved.)
CCCC1(CCC)c2cc(C(=O)C(CCSc3ccc(Cl)cc3)=NOC(C)=O)ccc2-c2ccc([N+](=O)[O-])cc21 [Compound D-15],346.0,36.7,52.6,86.2,99.1,91.9,202.1,,19.9,20.7,21.4,,22.3,19.5,19.9,20.7,21.4,22.3,,19.5,

# Continued, in another order:
Λ max (absorption maximum wavelength) [2] [nm],Absorption coefficient at 365 nm [2] [mL/mg/cm],Absorption coefficient at Λ max [2] [mL/mg/cm],Average transmittance (700 nm to 400 nm) Solution [3] [%],Average transmittance (700 nm to 400 nm) Transparent cured film [4] [%],Transmittance (400 nm) Transparent cured film [4] [%],Decomposition point [5] [°C],transparency of photosensitive composition and formed product (in words) [4],Structure (SMILES),"20-μm pattern line width [1, 8]","20-μm pattern line width [1, 9]","20-μm pattern line width [1, 10]","20-μm pattern line width [1, 11]","20-μm pattern line width [1, 12]",20-μm pattern line width ([7]; 10 mJ/cm^2),20-μm pattern line width ([7]; 20 mJ/cm^2),20-μm pattern line width ([7]; 40 mJ/cm^2),20-μm pattern line width ([7]; 60 mJ/cm^2),20-μm pattern line width ([7]; 80 mJ/cm^2),sensitivity to the active energy ray (in words) [1],"20-μm pattern line width [1, 13]",other results
335.5,11.8,43.0,77.8,99.8,99.7,195.2,,CCCCCCC1(CCCCCC)c2cc(C(=O)c3ccc([N+](=O)[O-])cc3)ccc2-c2ccc(C(CC(C)N(OC(C)=O)C(C)=O)=NOC(C)=O)cc21 (racemic) [Compound 12],19.8,20.0,21.0,21.2,21.5,,,,,,,,
330.0,3.0,54.0,94.0,100.0,99.4,192.7,additionally excellent transparency,CCCCCCC1(CCCCCC)c2cc(C(=O)c3ccc(F)cc3)ccc2-c2ccc(/C(CC(C)N(OC(C)=O)C(C)=O)=N\OC(C)=O)cc21 (stereo not shown) [Compound 9],19.9,20.5,21.3,22.2,22.8,19.9,20.5,21.3,22.2,22.8,,,
345.5,36.3,53.9,65.1,99.5,92.7,186.9,,CCCC1(CCC)c2cc(C(CCCSc3ccc(Cl)cc3)=NOC(C)=O)ccc2-c2ccc([N+](=O)[O-])cc21 [Compound D-14],20.6,21.7,22.8,,23.2,19.9,20.6,21.7,22.8,23.2,additionally high sensitivity to the active energy ray,19.9,
333.5,6.6,55.0,93.0,100.0,99.1,257.3,additionally excellent transparency,CCCCCCC1(CCCCCC)c2cc(C(=O)c3cccs3)ccc2-c2ccc(C(CC(C)N(OC(C)=O)C(C)=O)=NOC(C)=O)cc21 (racemic) [Compound 11],19.9,20.5,21.9,22.5,22.8,,,,,,additionally high sensitivity to the active energy ray,,
